Results taken from US7388025B2, “3-aryl-isoxazole-4-carbonyl-benzofuran derivatives” (Hoffman-La Roche Inc., priority 2005, dated 2008).

Target: T1, human GABA A receptor α5β3γ2 (Homo sapiens, UniProt P18507+P31644)
T1 construct: expressed in transfected cells; host or cells: HEK293 cells, transiently transfected; membranes prepared from them
Assay: [3H]flumazenil competition binding, HEK293 cells expressing human GABA A α5β3γ2 receptors
Conditions: human α5β3γ2 in HEK293 (transiently transfected), 0.5 nM [3H]flumazenil, mean of two determinations; read-out: Ki[nM] hα5
Method: Membrane Preparation and Binding Assay
The affinity of compounds at GABA A receptor subtypes was measured by competition for [3H]flumazenil (85 Ci/mmol; Roche) binding to HEK293 cells expressing rat (stably transfected) or human (transiently transfected) receptors of composition α1β3γ2, α2β3γ2, α3β3γ2 and α5β3γ2.
Cell pellets were suspended in Krebs-tris buffer (4.8 mM KCl, 1.2 mM CaCl2, 1.2 mM MgCl2, 120 mM NaCl, 15 mM Tris; pH 7.5; binding assay buffer), homogenized by polytron for ca. 20 sec on ice and centrifuged for 60 min at 4° C. (50000 g; Sorvall, rotor: SM24=20000 rpm). The cell pellets were resuspended in Krebs-tris buffer and homogenized by polytron for ca. 15 sec on ice. Protein was measured (Bradford method, Bio-Rad) and aliquots of 1 mL were prepared and stored at −80° C.
Radioligand binding assays were carried out in a volume of […] (96-well plates) which contained […] of cell memebranes, [3H]flumazenil at a concentration of 1 nM for α1, α2, α3 subunits and 0.5 nM for α5 subunits and the test compound in the range of […]. Nonspecific binding was defined by 10^−5 M diazepam and typically represented less than 5% of the total binding. Assays were incubated to equilibrium for 1 hour at 4° C. and harvested onto GF/C uni-filters (Packard) by filtration using a Packard harvester and washing with ice-cold wash buffer (50 mM Tris; pH 7.5). After drying, filter-retained radioactivity was detected by liquid scintillation counting. Ki values were calculated using Excel-Fit (Microsoft) and are the means of two determinations.

| SMILES | Ki [nM] |
| --- | --- |
| COc1ccc2oc(C(=O)c3c(-c4ccc(Br)cc4)noc3C)cc2c1 [Example 43, [3-(4-Bromo-phenyl)-5-methyl-isoxazol-4-yl]-(5-methoxy-benzofuran-2-yl)-methanone] | 2.9 |
| Cc1onc(-c2ccc(Br)cc2)c1C(=O)c1cc2ccccc2o1 [Example 28, Benzofuran-2-yl-[3-(4-bromo-phenyl)-5-methyl-isoxazol-4-yl]-methanone] | 8.1 |
| CCOc1cccc2cc(C(=O)c3c(-c4ccc(Br)cc4)noc3C)oc12 [Example 32, [3-(4-Bromo-phenyl)-5-methyl-isoxazol-4-yl]-(7-ethoxy-benzofuran-2-yl)-methanone] | 9.4 |
| Cc1onc(-c2ccc(Br)cc2)c1C(=O)c1cc2cc(O)ccc2o1 [Example 42, [3-(4-Bromo-phenyl)-5-methyl-isoxazol-4-yl]-(5-hydroxy-benzofuran-2-yl)-methanone] | 4.6 |
| Cc1onc(-c2ccccc2)c1C(=O)c1cc2ccccc2o1 [Example 1, Benzofuran-2-yl-(5-methyl-3-phenyl-isoxazol-4-yl)-methanone] | 15.2 |
| Cc1onc(-c2ccccc2)c1C(=O)c1cc2cccc(F)c2o1 [Example 2, (7-Fluoro-benzofuran-2-yl)-(5-methyl-3-phenyl-isoxazol-4-yl)-methanone] | 17.8 |
| Cc1onc(-c2ccccc2)c1C(=O)c1cc2cccc(OCc3ccccn3)c2o1 [Example 8, (5-Methyl-3-phenyl-isoxazol-4-yl)-[7-(pyridin-2-ylmethoxy)-benzofuran-2-yl]-methanone] | 16.7 |
| Cc1onc(-c2ccc(Br)cc2)c1C(=O)c1cc2cccc(OCc3ccccn3)c2o1 [Example 34, [3-(4-Bromo-phenyl)-5-methyl-isoxazol-4-yl]-[7-(pyridin-2-ylmethoxy)-benzofuran-2-yl]-methanone] | 36.3 |
